In patent US20060160785A1, “Ezetimibe polymorphs” (priority 2004, published 2006):
≈ marks a conversion by molar mass, not a printed value. Entries after “also recorded” stand apart in the source; their conditions may differ. Blank lines part the entries; values can stand above or below the molecule they belong to.

Columns and labels:
[1] = Transformation of ezetimibe crystal forms by heating (XRD); assay type: physicochemical
Source text: In the following examples, the forms of ezetimibe were identified using Scintag X-ray powder diffractometer model X'TRA, Cu-tube solid state detector. The sample holder was a round standard aluminum sample holder with rough zero background quartz plate with a cavity of 25 (diameter) X 0.5 mm (depth). The scanning parameters were range: 2-40 degrees two-theta; scan mode: continuous scan; step size: 0.05 deg.; and a rate of 3 deg/min.
After two hours, each sample was removed and analyzed by XRD.

Solubility of ezetimibe = assay type: physicochemical; conditions: water
[2] = cited from earlier work
[3] = reported; cited from earlier work
[4] = Transformation under different relative humidities (XRD and KF); assay type: physicochemical; conditions: for Crystal form / Water content by KF: 25-30° C.
Description: 500 mg samples were placed in an open glass bottle at a temperature of 25° C. to 30° C., under various humidity for a sufficient time (1-14 days) for each sample to equilibrate. At the end of each time period, each sample was removed and analyzed by XRD and by KF. The results are summarized below in Tables 6-7 for starting Forms A and B, respectively.

[5] = Effect of pressing on crystalline stability; assay type: physicochemical; conditions: pressed 1 minute, approximately 1300 psi
Description: Crystalline stability of Form A and Form B was tested by pressing each of the forms for about 1 minute under a pressure of about 1300 psi. […] Form A is also stable under pressing.
Forms A and B were studied under pressure. The forms were pressed for 1 minute under a pressure of approximately 1300 psi.

[6] = Micronization (milling) crystal form stability; assay type: physicochemical
Description: Micronization of Form B is preferably carried out by milling Form B using a feed air rate of about 6 bar and a grinding air pressure of about 5 bar, for about 20 to about 30 minutes.
Form B was milled by a 50 mm micronizer for about 20 to 30 minutes. The feed air rate was 6.0 bar and the grinding air was 5.0 bar. The sample was analyzed before and after micronization by XRD. During micronization 65% (estimated by XRD and by KF) of Form B converted to Form A. The estimated water content is 1-2% by weight. Micronization of Form A on the other hand results in Form A.

[7] = Particle size distribution by Malvern laser diffraction; assay type: physicochemical; conditions: prime particles with sonication
Description: A Malvern Laser Diffraction instrument was used to characterize the particle size distribution of ezetimibe. A Mastersizer S model equipped with a small cell dispersion unit MS1 with a digital dispersion unit controller was used. The measurement was done using range lens 300RF (working range 0.05-900 mcm), beam length: 2.40 mm and presentation 3NHE. In this case, a solution of dioctyl sulfosuccinate sodium salt in n-hexane was used as a dilution medium. The measurement was started after 1 minute of recirculation after suspension addition into measurement cell at speed rate 2000±10 rpm.
The suspension was prepared of 0.1 g sample in solution 0.065% dioctyl sulfosuccinate sodium salt in n-hexane by vortex for 10 seconds and by sonication for 30 seconds. According to the accepted rules of Good Manufacture Procedures, the sample of ezetimibe is preferably measured after a successful blank measurement (% obscuration NMT 0.1% is performed.

[8] = Specific surface area (Coulter SA3100, BET); assay type: physicochemical
Description: Specific surface area was measured using the following parameters:
Instrument: Coulter SA3100
(§1) Table 8 illustrates the maximum particle size and specific surface area of ezetimibe Form B before and after micronization. The maximum particle size was determined by microscope observation.

[9] = Maximum particle size by microscope observation; assay type: physicochemical
Description: (§2) 1 g mixture of micronized Form A and B was stored at 30° C. under 100% RH for 8 days. The mixture of Form A and Form B converted to 100% Form B after storage. Micronized Form B contained 4.1% water by weight based on Karl Fischer analysis. The micronized sample was analyzed before and after storage by XRD. The material was dispersed in light mineral oil before measurement for microscope observation. Form B was in the shape of needles and plates.
as §1

[10] = Stability of Form B in water slurry; assay type: physicochemical
Description: Ezetimibe Form B was stirred in soft water (25 ml) for 4 h at room temperature (heavy slurry). The mixture was filtered and washed with water (20 ml). The wet sample, after washing, was Form B. The solid was dried under vacuum at 45° C. for 18 hrs. The dry sample contained Form B (20-30% by weight) and Form A. 95% yield.

[11] = Storage of micronized Form A and B mixture at 30° C., 100% RH; assay type: physicochemical; conditions: 8 days
Description: as §2

[12] = 50 mm micronizer, 20 to 30 minutes

Structure (SMILES): O=C1[C@H](CC[C@H](O)c2ccc(F)cc2)[C@@H](c2ccc(O)cc2)N1c1ccc(F)cc1 [Amorphous Form, 1-(4-fluorophenyl)-3(R)-[3-(4-fluorophenyl)-3(S)-hydroxypropyl]-4(S)-(4-hydroxyphenyl)-2-azetidinone]
- heat transformation result (crystal form by XRD) ([1]; 60° C., 2 h, atmospheric oven): Amorphous Form
- heat transformation result (crystal form by XRD) ([1]; 90° C., 2 h, atmospheric oven): Form A
- temperature at which it transforms to Form A ([1]; heating): above 60 °C

Structure (SMILES): O=C1[C@H](CC[C@H](O)c2ccc(F)cc2)[C@@H](c2ccc(O)cc2)N1c1ccc(F)cc1 [Ezetimibe, 1-(4-fluorophenyl)-3(R)-[3-(4-fluorophenyl)-3(S)-hydroxypropyl]-4(S)-(4-hydroxyphenyl)-2-azetidinone]
- solubility (Solubility of ezetimibe): 10 µg/mL (≈ 24.4 µM)
- solubility in ethanol, methanol, and acetone ([2]; ethanol, methanol, acetone): freely to very soluble
- solubility in water ([2]; water): practically insoluble
- stability at ambient temperature [3]: stable

Structure (SMILES): O=C1[C@H](CC[C@H](O)c2ccc(F)cc2)[C@@H](c2ccc(O)cc2)N1c1ccc(F)cc1 [Form A, 1-(4-fluorophenyl)-3(R)-[3-(4-fluorophenyl)-3(S)-hydroxypropyl]-4(S)-(4-hydroxyphenyl)-2-azetidinone]
- heat transformation result (crystal form by XRD) ([1]; 60° C., 2 h, atmospheric oven): Form A
- heat transformation result (crystal form by XRD) ([1]; 90° C., 2 h, atmospheric oven): Form A
- heat transformation result (crystal form by XRD) ([1]; 110° C., 2 h, atmospheric oven): Form A
- stability upon heating ([1]; even at high temperatures): stable
- Crystal form ([4]; RH 0%, 12 days): Form A
- Water content by KF ([4]; RH 0%, 12 days): 0.2 wt %
- Crystal form ([4]; RH 20%, 7 days): Form A + ˜5% B*
- Water content by KF ([4]; RH 20%, 7 days): 0.2 wt %
- Crystal form ([4]; RH 40%, 12 days): Form A + ˜5-10% B*
- Water content by KF ([4]; RH 40%, 12 days): 0.3 wt %
- Crystal form ([4]; RH 80%, 12 days): Form B
- Water content by KF ([4]; RH 80%, 12 days): 4.5 wt %
- Crystal form ([4]; RH 100%, 1 day): Form B
- Water content by KF ([4]; RH 100%, 1 day): 4.3 wt %
- Sample after pressing (crystal form) [5]: stable; also recorded: Form A + ˜5% B
- crystal form after micronization [6, 12]: Form A
- stability upon micronization ([6]; milling, feed air 6 bar, grinding air 5 bar): stable
- d (0.5) [7]: 3.18-3.33 microns
- d (0.9) [7]: 7.95-8.05 microns
- d(0.1) [7]: 0.39 microns

The next lines start with results.

- heat transformation result (crystal form by XRD) ([1]; 45° C., 18 h): Form A
- heat transformation result (crystal form by XRD) ([1]; 60° C., 2 h, atmospheric oven): Form A
- heat transformation result (crystal form by XRD) ([1]; 90° C., 2 h, atmospheric oven): Form A
- heat transformation result (crystal form by XRD) ([1]; 110° C., 2 h, atmospheric oven): Form A
- Crystal form ([4]; RH 0%, 14 days): Form A
- Water content by KF ([4]; RH 0%, 14 days): 0.1 wt %
- Crystal form ([4]; RH 20%, 7 days): Form A + ˜5% B*
- Water content by KF ([4]; RH 20%, 7 days): 0.2 wt %
- Crystal form ([4]; RH 40%, 14 days): Form B
- Water content by KF ([4]; RH 40%, 14 days): 4.0 wt %
- Crystal form ([4]; RH 80%, 14 days): Form B
- Water content by KF ([4]; RH 80%, 14 days): 4.3 wt %
- Crystal form ([4]; RH 100%, 14 days): Form B
- Water content by KF ([4]; RH 100%, 14 days): 4.4 wt %
- estimated water content after micronization [6, 12]: 1-2 % by weight
- Form B converted to Form A during micronization ([6]; 50 mm micronizer, 20 to 30 minutes, estimated by XRD and by KF): 65%
- SSA ([8]; After micronization): 6.8 m^2/g
- SSA ([8]; Before micronization): 3.4 m^2/g
- Maximum particle size ([9]; After micronization): 20 μm
- Maximum particle size ([9]; Before micronization): 400 μm
- Form B content of dry sample after water slurry ([10]; dried under vacuum at 45° C. for 18 hrs, remainder Form A): 20-30 % by weight
- crystal form of wet sample after water slurry ([10]; soft water, 4 h, room temperature, filtered and washed): Form B
Structure (SMILES): O=C1[C@H](CC[C@H](O)c2ccc(F)cc2)[C@@H](c2ccc(O)cc2)N1c1ccc(F)cc1 [Form B, 1-(4-fluorophenyl)-3(R)-[3-(4-fluorophenyl)-3(S)-hydroxypropyl]-4(S)-(4-hydroxyphenyl)-2-azetidinone]
- Sample after pressing (crystal form) [5]: retains its crystalline form; also recorded: Form B

- stability in relative humidity ([4]; relative humidity of about 40% to about 100%): stable
- water content by Karl Fischer after storage [11]: 4.1 % by weight
- stability upon slurrying [10]: stable
Structure (SMILES): O=C1[C@H](CC[C@H](O)c2ccc(F)cc2)[C@@H](c2ccc(O)cc2)N1c1ccc(F)cc1 [Micronized Form B]

- Form B content after storage [11]: 100%
Structure (SMILES): O=C1[C@H](CC[C@H](O)c2ccc(F)cc2)[C@@H](c2ccc(O)cc2)N1c1ccc(F)cc1 [mixture of micronized Form A and B]
